Assay results from publication PMC7827406, “Structure–Activity Relationship (SAR) Study of Spautin-1 to Entail the Discovery of Novel NEK4 Inhibitors” (International Journal of Molecular Sciences, 2021).
Read-outs that look alike come from different tables or passages of the source.

How the values were obtained:
Experiment in all cases: biochemical
Design in all cases: Eurofins KinaseProfiler full panel at Km ATP, residual kinase activity (%) relative to DMSO
[1] = molecular target: T1, Abl(Y253F)(h) (Homo sapiens, UniProt P00519, Y253F)
T1 construct: gene ABL1
In short: (§1)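 Radiometric kinase activity assays were run with ATP at Km and compounds at 10 µM, and remaining activity (%) was reported. A separate competitive binding screen measured DNA-tagged kinase displaced from immobilized active-site ligands by qPCR, giving percent kinase still bound at 10 µM compound in DMSO.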

[2] = molecular target: T2, MKK3(h) (Homo sapiens, UniProt P46734)
T2 construct: gene MAP2K3
T2 sequence (P46734 1-347): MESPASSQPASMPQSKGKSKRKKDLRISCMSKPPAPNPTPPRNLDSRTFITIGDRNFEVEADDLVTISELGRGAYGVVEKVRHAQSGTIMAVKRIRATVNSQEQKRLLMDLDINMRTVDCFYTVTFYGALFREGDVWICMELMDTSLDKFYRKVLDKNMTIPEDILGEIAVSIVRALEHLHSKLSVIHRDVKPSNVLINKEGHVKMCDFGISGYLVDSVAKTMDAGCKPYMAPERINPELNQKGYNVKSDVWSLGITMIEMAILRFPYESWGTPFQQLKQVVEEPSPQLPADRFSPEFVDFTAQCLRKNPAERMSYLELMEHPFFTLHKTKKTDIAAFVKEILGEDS
In short: as §1

[3] = molecular target: STK25(h) (Homo sapiens, UniProt O00506)
In short: as §1

[4] = molecular target: T3, CaMKI(h) (Homo sapiens, UniProt Q14012)
T3 construct: gene CAMK1
In short: as §1

[5] = molecular target: T4, IR(h) (Homo sapiens, UniProt P06213)
T4 construct: gene INSR
In short: as §1

[6] = molecular target: CLK1(h) (Homo sapiens, UniProt P49759)
In short: as §1

[7] = molecular target: T5, MARK4(h) (Homo sapiens, UniProt Q96L34)
T5 sequence (Q96L34 1-752): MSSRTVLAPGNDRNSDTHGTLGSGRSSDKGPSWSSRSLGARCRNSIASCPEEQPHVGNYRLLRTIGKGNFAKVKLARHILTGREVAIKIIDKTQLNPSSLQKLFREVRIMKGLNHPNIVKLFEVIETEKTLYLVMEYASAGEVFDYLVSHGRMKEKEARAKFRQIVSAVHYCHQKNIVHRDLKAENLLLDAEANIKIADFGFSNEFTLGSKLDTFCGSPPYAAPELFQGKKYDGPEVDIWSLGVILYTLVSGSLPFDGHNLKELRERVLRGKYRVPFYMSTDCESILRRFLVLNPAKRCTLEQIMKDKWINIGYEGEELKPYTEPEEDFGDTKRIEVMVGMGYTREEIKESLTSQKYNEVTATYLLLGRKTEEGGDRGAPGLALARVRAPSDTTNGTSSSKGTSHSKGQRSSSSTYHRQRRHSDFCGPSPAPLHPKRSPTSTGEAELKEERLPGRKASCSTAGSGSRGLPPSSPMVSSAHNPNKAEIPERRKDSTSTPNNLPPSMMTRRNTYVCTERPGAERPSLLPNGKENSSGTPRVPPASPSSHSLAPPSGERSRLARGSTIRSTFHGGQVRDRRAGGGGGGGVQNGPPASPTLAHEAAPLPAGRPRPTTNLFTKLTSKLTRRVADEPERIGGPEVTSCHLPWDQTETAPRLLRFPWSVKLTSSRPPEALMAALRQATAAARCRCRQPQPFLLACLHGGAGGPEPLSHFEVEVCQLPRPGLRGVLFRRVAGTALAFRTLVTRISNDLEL
In short: as §1

[8] = molecular target: T6, ChaK1(h) (Homo sapiens, UniProt Q96QT4)
T6 construct: gene TRPM7
In short: as §1

[9] = molecular target: T7, MLK4(h) (Homo sapiens, UniProt Q5TCX8)
T7 construct: gene MAP3K21
In short: as §1

[10] = molecular target: T8, Rsk2(h) (Homo sapiens, UniProt P51812)
T8 construct: gene RPS6KA3
In short: as §1

[11] = molecular target: T9, NDR2(h) (Homo sapiens, UniProt Q9Y2H1)
T9 construct: gene STK38L
In short: as §1

[12] = molecular target: T10, Rsk1(h) (Homo sapiens, UniProt Q15418)
T10 construct: gene RPS6KA1
In short: as §1

[13] = molecular target: T11, Ron(h) (Homo sapiens, UniProt Q04912)
T11 construct: gene MST1R
In short: as §1

[14] = read-out: Residual activity (%) 5ay
[15] = read-out: Residual activity (%) Spautin-1 5aa
[16] = read-out: Residual activity (%) 5at
[17] = read-out: Residual activity (%) 5as

T6 sequence (Q96QT4 whole entry): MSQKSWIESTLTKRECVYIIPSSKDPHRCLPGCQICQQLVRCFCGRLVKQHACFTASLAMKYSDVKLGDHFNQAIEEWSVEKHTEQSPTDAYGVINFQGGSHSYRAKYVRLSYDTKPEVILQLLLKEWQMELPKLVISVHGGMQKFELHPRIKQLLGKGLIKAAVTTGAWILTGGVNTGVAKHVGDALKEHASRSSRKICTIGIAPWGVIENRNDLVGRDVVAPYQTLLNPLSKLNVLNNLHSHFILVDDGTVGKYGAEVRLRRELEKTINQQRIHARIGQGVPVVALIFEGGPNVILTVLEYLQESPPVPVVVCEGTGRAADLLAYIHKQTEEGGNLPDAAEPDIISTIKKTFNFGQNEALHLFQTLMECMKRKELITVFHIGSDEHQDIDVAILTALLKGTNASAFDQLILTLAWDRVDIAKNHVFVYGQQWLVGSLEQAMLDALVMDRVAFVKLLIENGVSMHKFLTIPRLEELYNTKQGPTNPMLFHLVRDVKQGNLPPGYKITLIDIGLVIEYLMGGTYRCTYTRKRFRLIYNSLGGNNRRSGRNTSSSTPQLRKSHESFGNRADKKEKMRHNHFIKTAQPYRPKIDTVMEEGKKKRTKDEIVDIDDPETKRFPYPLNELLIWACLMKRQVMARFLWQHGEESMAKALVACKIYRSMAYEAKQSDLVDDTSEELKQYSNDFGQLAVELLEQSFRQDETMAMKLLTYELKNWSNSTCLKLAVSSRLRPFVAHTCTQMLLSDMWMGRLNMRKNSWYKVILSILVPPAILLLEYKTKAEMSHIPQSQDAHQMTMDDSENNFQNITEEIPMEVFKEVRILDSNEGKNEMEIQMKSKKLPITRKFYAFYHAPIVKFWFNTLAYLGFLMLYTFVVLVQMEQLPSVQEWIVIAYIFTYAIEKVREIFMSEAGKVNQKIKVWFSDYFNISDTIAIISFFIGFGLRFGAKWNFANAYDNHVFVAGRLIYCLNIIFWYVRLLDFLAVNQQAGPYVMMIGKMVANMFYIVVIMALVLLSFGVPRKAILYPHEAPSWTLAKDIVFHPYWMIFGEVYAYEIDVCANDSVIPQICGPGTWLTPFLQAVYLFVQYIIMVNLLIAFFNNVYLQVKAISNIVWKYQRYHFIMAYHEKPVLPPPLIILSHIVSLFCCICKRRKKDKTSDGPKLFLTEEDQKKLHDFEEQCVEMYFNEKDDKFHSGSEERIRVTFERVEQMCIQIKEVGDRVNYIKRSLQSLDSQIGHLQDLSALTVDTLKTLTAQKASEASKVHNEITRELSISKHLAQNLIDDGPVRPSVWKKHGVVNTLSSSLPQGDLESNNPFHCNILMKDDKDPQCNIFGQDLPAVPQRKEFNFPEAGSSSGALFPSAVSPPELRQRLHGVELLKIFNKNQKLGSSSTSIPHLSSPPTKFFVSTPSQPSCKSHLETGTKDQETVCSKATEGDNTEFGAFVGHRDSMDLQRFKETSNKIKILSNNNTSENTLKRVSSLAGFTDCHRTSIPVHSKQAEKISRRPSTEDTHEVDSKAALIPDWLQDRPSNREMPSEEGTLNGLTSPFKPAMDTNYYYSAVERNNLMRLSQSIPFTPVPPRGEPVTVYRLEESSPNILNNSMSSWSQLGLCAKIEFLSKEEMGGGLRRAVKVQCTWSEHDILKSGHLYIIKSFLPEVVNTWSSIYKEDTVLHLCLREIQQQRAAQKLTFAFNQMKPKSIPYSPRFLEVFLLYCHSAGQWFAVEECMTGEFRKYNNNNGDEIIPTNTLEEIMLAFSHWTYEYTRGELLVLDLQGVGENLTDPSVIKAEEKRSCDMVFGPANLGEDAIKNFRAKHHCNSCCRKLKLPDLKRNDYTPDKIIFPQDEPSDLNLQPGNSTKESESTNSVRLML
T8 sequence (P51812 whole entry): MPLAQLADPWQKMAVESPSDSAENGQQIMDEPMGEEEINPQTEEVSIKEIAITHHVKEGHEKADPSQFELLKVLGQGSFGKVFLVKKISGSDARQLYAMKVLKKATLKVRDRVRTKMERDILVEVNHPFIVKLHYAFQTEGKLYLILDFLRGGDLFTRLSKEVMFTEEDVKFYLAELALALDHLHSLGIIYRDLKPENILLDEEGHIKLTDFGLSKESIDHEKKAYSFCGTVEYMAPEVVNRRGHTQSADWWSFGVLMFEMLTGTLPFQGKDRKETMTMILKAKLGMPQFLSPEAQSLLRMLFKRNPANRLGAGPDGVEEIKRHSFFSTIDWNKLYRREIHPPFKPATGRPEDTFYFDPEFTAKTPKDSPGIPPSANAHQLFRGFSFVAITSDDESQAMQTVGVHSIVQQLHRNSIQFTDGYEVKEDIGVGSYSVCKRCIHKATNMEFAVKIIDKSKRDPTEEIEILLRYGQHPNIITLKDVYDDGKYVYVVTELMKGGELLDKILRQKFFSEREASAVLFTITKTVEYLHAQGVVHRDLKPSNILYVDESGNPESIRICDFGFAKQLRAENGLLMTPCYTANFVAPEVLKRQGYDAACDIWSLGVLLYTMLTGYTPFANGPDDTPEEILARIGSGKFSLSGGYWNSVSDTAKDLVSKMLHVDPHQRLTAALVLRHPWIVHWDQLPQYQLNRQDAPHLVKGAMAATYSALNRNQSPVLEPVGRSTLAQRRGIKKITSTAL
T7 sequence (Q5TCX8 whole entry): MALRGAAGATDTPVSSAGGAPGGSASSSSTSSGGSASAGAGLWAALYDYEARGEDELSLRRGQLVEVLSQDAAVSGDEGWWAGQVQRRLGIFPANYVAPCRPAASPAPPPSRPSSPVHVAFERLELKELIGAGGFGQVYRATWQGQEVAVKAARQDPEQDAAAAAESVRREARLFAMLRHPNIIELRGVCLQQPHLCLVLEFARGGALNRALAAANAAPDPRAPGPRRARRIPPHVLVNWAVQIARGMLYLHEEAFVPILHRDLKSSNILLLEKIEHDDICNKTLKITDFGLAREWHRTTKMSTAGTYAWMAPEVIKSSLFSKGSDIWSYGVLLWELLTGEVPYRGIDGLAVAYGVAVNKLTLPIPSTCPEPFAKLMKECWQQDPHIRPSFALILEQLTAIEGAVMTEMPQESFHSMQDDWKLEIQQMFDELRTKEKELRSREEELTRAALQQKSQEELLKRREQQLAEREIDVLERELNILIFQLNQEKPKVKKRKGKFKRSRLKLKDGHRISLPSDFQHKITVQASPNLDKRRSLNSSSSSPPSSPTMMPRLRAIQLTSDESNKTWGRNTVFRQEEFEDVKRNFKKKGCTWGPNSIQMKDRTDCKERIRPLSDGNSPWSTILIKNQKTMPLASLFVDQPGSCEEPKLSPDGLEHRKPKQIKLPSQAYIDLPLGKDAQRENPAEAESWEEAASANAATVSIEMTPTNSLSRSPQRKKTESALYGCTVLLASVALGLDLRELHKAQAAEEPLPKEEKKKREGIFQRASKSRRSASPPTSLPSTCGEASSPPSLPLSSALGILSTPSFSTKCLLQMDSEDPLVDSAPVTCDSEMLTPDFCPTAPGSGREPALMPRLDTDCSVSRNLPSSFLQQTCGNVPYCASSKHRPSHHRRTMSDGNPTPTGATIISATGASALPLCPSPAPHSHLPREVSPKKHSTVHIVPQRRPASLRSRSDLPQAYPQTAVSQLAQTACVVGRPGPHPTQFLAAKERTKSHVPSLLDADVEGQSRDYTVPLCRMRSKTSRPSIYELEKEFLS
T11 sequence (Q04912 whole entry): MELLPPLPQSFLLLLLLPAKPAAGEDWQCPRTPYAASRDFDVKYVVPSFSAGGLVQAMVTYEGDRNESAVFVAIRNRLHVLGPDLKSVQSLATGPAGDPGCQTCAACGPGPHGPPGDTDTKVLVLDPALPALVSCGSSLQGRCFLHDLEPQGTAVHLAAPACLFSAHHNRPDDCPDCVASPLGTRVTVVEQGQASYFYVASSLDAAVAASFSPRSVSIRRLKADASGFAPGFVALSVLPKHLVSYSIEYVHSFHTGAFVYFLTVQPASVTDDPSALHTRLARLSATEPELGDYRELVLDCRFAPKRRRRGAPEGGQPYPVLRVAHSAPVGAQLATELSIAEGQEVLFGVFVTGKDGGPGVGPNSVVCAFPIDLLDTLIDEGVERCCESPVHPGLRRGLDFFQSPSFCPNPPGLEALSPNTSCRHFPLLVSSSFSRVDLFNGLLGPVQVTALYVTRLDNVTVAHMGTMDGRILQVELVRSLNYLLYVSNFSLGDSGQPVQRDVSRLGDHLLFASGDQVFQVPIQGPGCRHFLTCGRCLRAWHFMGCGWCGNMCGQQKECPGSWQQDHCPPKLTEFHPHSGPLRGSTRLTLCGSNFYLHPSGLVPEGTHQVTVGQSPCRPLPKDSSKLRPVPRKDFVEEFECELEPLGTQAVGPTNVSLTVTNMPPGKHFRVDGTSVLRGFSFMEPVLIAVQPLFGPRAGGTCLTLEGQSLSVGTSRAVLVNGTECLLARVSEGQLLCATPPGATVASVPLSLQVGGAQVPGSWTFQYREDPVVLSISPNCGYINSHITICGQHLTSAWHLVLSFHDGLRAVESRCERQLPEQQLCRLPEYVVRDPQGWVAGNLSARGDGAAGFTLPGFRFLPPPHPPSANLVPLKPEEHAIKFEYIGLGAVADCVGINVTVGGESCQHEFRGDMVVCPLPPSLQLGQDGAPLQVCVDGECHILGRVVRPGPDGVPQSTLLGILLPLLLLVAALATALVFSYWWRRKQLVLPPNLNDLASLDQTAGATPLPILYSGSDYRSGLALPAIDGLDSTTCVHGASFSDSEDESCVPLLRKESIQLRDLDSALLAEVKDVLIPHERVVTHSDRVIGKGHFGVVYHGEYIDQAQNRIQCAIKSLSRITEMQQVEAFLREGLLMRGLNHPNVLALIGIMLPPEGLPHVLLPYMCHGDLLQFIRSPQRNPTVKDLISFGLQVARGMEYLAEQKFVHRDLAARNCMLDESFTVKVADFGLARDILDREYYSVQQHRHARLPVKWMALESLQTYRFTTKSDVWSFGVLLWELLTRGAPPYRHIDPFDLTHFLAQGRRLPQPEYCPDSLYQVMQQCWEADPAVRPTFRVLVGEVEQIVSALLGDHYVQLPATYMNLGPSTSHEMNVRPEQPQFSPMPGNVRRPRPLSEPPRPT

COc1ccc2ncnc(Nc3cccc(F)c3)c2c1 [5ay, N-(3-Fluorophenyl)-6-Methoxy-4-Quinazolinamine]
remaining activity at 10 µM [1, 14]: 66%
remaining activity at 10 µM [2, 14]: 105%
remaining activity at 10 µM [3, 14]: 114%
remaining activity at 10 µM [4, 14]: 93%
remaining activity at 10 µM [5, 14]: 98%
remaining activity at 10 µM [6, 14]: 14%
remaining activity at 10 µM [7, 14]: 100%
remaining activity at 10 µM [8, 14]: 77%
remaining activity at 10 µM [9, 14]: 91%
remaining activity at 10 µM [10, 14]: 70%
remaining activity at 10 µM [11, 14]: 103%
remaining activity at 10 µM [12, 14]: 116%
remaining activity at 10 µM [13, 14]: 88%

Fc1ccc(CNc2ncnc3ccc(F)cc23)cc1 [5aa, 6-Fluoro-N-(4-fluorobenzyl)-4-Quinazolinamine]
remaining activity at 10 µM [1, 15]: 106%
remaining activity at 10 µM [2, 15]: 101%
remaining activity at 10 µM [3, 15]: 114%
remaining activity at 10 µM [4, 15]: 90%
remaining activity at 10 µM [5, 15]: 73%
remaining activity at 10 µM [6, 15]: 23%
remaining activity at 10 µM [7, 15]: 107%
remaining activity at 10 µM [8, 15]: 86%
remaining activity at 10 µM [9, 15]: 105%
remaining activity at 10 µM [10, 15]: 93%
remaining activity at 10 µM [11, 15]: 120%
remaining activity at 10 µM [12, 15]: 102%
remaining activity at 10 µM [13, 15]: 98%

Fc1ccc2ncnc(NCCc3ccc(Cl)cc3)c2c1 [5at, N-[2-(4-Chlorophenyl)Ethyl]-6-Fluoro-4-Quinazolinamine]
remaining activity at 10 µM [1, 16]: 71%
remaining activity at 10 µM [2, 16]: 86%
remaining activity at 10 µM [3, 16]: 111%
remaining activity at 10 µM [4, 16]: 104%
remaining activity at 10 µM [5, 16]: 70%
remaining activity at 10 µM [6, 16]: 28%
remaining activity at 10 µM [7, 16]: 105%
remaining activity at 10 µM [8, 16]: 82%
remaining activity at 10 µM [9, 16]: 94%
remaining activity at 10 µM [10, 16]: 73%
remaining activity at 10 µM [11, 16]: 115%
remaining activity at 10 µM [12, 16]: 103%
remaining activity at 10 µM [13, 16]: 101%

Fc1ccc(CCNc2ncnc3ccc(F)cc23)cc1 [5as, 6-Fluoro-N-[2-(4-Fluorophenyl)Ethyl]-4-Quinazolinamine]
remaining activity at 10 µM [1, 17]: 91%
remaining activity at 10 µM [2, 17]: 82%
remaining activity at 10 µM [3, 17]: 112%
remaining activity at 10 µM [4, 17]: 60%
remaining activity at 10 µM [5, 17]: 88%
remaining activity at 10 µM [6, 17]: 28%
remaining activity at 10 µM [7, 17]: 104%
remaining activity at 10 µM [8, 17]: 81%
remaining activity at 10 µM [9, 17]: 93%
remaining activity at 10 µM [10, 17]: 79%
remaining activity at 10 µM [11, 17]: 99%
remaining activity at 10 µM [12, 17]: 110%
remaining activity at 10 µM [13, 17]: 109%
